Drawing on ChEMBL document CHEMBL1150967, “Two new diterpene glycosides from the soft coral lemnalia bournei” (J Nat Prod, 1998), this text covers IC50 for three compounds.

Holding throughout (assay type): functional, cell-based
Assay [1] in a line: Cytotoxicity against human HepA cells.
Assay [2] in a line: Cytotoxicity against mouse S180A cells.
Assay [3] is described as follows: Cytotoxicity against mouse EAC cells. As to conditions: Ehrlich.

Converted amounts (≈) assume the structure as drawn.

Regarding `CC(=O)O[C@@H]1[C@@H](O)[C@@H]2O[C@@H]([C@H](C)CCC[C@H](C)[C@@H]3CC=C(C)[C@H]4CCC(C)=C[C@@H]34)OC[C@@H](O2)[C@H]1O` [LEMNABOURSIDE B], the IC50 in assay [1] stood at 33.5 µg/mL (≈ 68 µM); in assay [2], 40 µg/mL (≈ 81.2 µM); in assay [3] it was 73.3 µg/mL (≈ 149 µM).
For the compound `CC(=O)O[C@H]1[C@H](O)[C@@H](O)[C@@H]2O[C@@H]([C@H](C)CCC[C@H](C)[C@@H]3CC=C(C)[C@H]4CCC(C)=C[C@@H]34)OC[C@H]1O2` [LEMNABOURSIDE C], the IC50 in assay [1] stood at 41.4 µg/mL (≈ 84 µM); in assay [2] it was 187 µg/mL (≈ 379 µM); in assay [3], 40.5 µg/mL (≈ 82.2 µM).
In the case of `CC1=C[C@H]2[C@H]([C@H](C)CCC[C@@H](C)C3OC[C@H]4O[C@@H](O3)[C@H](O)[C@@H](O)[C@@H]4O)CC=C(C)[C@H]2CC1` (some centres undefined) [LEMNABOURSIDE], the IC50 in assay [1] was 31.6 µg/mL (≈ 70.1 µM); in assay [2], 27.4 µg/mL (≈ 60.8 µM); in assay [3] it was 97.8 µg/mL (≈ 217 µM).

The IC50 is the concentration that gives 50% inhibition. A high value points to weaker potency in that assay.
